These results are taken from patent US20240262819A1, “NOVEL COMPOUNDS HAVING INHIBITORY ACTIVITY AGAINST GLUCOSYLCERAMIDE SYNTHASE OR PHARMACEUTICALLY ACCEPTABLE SALT THEREOF, PROCESSES FOR PREPARING THE SAME, AND PHARMACEUTICAL COMPOSITIONS COMPRISING THE SAME” (YUHAN CORPORATION, priority 2021, published 2024).

Like-named read-outs stand apart in the source and are kept apart here.

Series [1] has as its system GM1 production in Jurkat cells. Kind of series: cells. The series is classed as cell-based. The following applies: Homo sapiens, Jurkat, 72 h.
Series [2] is described as follows: Evaluation of blood-brain barrier (BBB) permeability through oral administration. The series is classed as in vivo, mice. The following applies: mouse, in vivo, mice, oral, 4 hr; for Kp at 4 h: read-out: Mean brain-plasma drug ratio at 4 hr. The protocol:
The blood-brain barrier (BBB) permeability was evaluated in mice, with respect to the compounds according to the present invention and the control (ibiglustat). Each compound of the present invention and the control were suspended in 0.5% methyl cellulose containing 0.2% Tween 80 and then orally administered to mice at a dose of 10 or 30 mg/10 ml/kg. After the whole blood was collected from the heart of each mouse at the time of 4 hours after the administration, it was placed in a lithium heparin tube and immediately centrifuged to obtain the plasma. After the exsanguination was carried out through abdominal vena cava incision, the forebrain was taken by dissection of the head. Both of the forebrain and the plasma were stored in a −80° C. freezer until the analysis of drug concentrations therein. For the analysis of drug concentrations therein, the forebrain was immersed in distilled water and then homogenized with a homogenizer to obtain a homogenate. Each plasma and homogenate was treated with acetonitrile to precipitate proteins, vortexed for 15 seconds, and then centrifuged (12700 rpm, 10 min, 4° C.). The obtained supernatant was diluted with an 80% aqueous solution of acetonitrile containing 0.1% formic acid and then analyzed with an LC-MS/MS instrument. LC-MS/MS analysis was carried out with a reversed-phase column, using distilled water containing 0.1% formic acid and acetonitrile as mobile phases. Each eluted material was detected through a mass spectrometer to calculate the drug concentrations thereof. The brain-plasma drug ratio (B/P ratio) was calculated from the drug concentrations in each tissue to evaluate the blood-brain barrier (BBB) permeability.

Setting [3] is: dose 30 mg/kg, read-out: Mean drug concentrations in brain tissue at 4 hr.
[4] abbreviates: dose 30 mg/kg, read-out: Mean drug concentrations in plasma at 4 hr.

For the compound `CCCOc1ccc(-c2cc3c(cc2F)[C@H](NC(=O)O[C@@H]2CN4CCC2CC4)C(C)(C)C3)cc1` [Example 69, (S)-quinuclidin-3-yl((R)-6-fluoro-2,2-dimethyl-5-(4-propoxyphenyl)-2,3-dihydro-1H-inden-1-yl)carbamate], in series [1], 1.1 nM corresponded to half-maximal inhibition (IC50). Moreover, the Kp at 4 h in series [2] (dose 30 mg/kg) was 9.84. Besides, the concentration at 4 h in series [2] (setting [3]) was 4140 ng/g; in series [2] (setting [4]), 433 ng/mL.
The matching figures for `CC(C)Oc1ccc(-c2ccc3c(c2)CC(C)(C)[C@H]3NC(=O)O[C@@H]2CN3CCC2CC3)cc1F` [Example 21, (S)-quinuclidin-3-yl((R)-5-(3-fluoro-4-isopropoxyphenyl)-2,2-dimethyl-2,3-dihydro-1H-inden-1-yl)carbamate]: 20.9 nM, 6.48, 9510 ng/g and 1480 ng/mL.
The matching figures for `CCCOc1ccc(-c2ccc3c(c2)CC(C)(C)[C@H]3NC(=O)O[C@@H]2CN3CCC2CC3)cc1F` [Example 20, (S)-quinuclidin-3-yl((R)-5-(3-fluoro-4-propoxyphenyl)-2,2-dimethyl-2,3-dihydro-1H-inden-1-yl)carbamate]: 18.4 nM, 7.12, 4070 ng/g and 578 ng/mL.
The matching figures for `CC(C)COc1ccc(-c2cc3c(cc2F)[C@H](NC(=O)O[C@@H]2CN4CCC2CC4)C(C)(C)C3)cc1` [Example 57, (S)-quinuclidin-3-yl((R)-6-fluoro-5-(4-isobutoxyphenyl)-2,2-dimethyl-2,3-dihydro-1H-inden-1-yl)carbamate]: 0.99 nM, 20.9, 1330 ng/g and 63.7 ng/mL.
For the compound `CCOc1ccc(-c2cc3c(cc2F)[C@H](NC(=O)O[C@@H]2CN4CCC2CC4)C(C)(C)C3)cc1F` [Example 90, (S)-quinuclidin-3-yl((R)-5-(4-ethoxy-3-fluorophenyl)-6-fluoro-2,2-dimethyl-2,3-dihydro-1H-inden-1-yl)carbamate], the concentration for half-maximal inhibition (IC50) (commonly the concentration needed to halve the response being measured) in series [1] turned out to be 26.4 nM. Also, the Kp at 4 h in series [2] (dose 30 mg/kg) is 7.42. For the same compound, the concentration at 4 h was 6480 ng/g in series [2] (setting [3]) and 874 ng/mL in series [2] (setting [4]).
The matching figures for `CCCc1ccc(-c2cc3c(cc2F)[C@H](NC(=O)O[C@@H]2CN4CCC2CC4)C(C)(C)C3)cc1` [Example 61, (S)-quinuclidin-3-yl((R)-6-fluoro-2,2-dimethyl-5-(4-propylphenyl)-2,3-dihydro-1H-inden-1-yl)carbamate]: 10.6 nM, 11.1, 4880 ng/g and 439 ng/mL.
The matching figures for `COc1c(C)cc(-c2cc3c(cc2F)[C@H](NC(=O)O[C@@H]2CN4CCC2CC4)C(C)(C)C3)cc1C` [Example 63, (S)-quinuclidin-3-yl((R)-6-fluoro-5-(4-methoxy-3,5-dimethylphenyl)-2,2-dimethyl-2,3-dihydro-1H-inden-1-yl)carbamate]: 20.6 nM, 1.4, 1360 ng/g and 974 ng/mL.
The compound `CCOc1ccc(-c2ccc3c(c2)CC(C)(C)[C@H]3NC(=O)O[C@@H]2CN3CCC2CC3)cc1Cl` [Example 15, (S)-quinuclidin-3-yl((R)-5-(3-chloro-4-ethoxyphenyl)-2,2-dimethyl-2,3-dihydro-1H-inden-1-yl)carbamate] displayed an IC50 in series [1] of 40.5 nM. The Kp at 4 h in series [2] (dose 30 mg/kg) amounted to 4.66. In addition, the concentration at 4 h is 6030 ng/g in series [2] (setting [3]) and 1290 ng/mL in series [2] (setting [4]).
In turn, `CCCOc1ccc(-c2ccc3c(c2)CC(C)(C)[C@H]3NC(=O)O[C@@H]2CN3CCC2CC3)cc1Cl` [Example 16, (S)-quinuclidin-3-yl((R)-5-(3-chloro-4-propoxyphenyl)-2,2-dimethyl-2,3-dihydro-1H-inden-1-yl)carbamate] yielded an IC50 in series [1] of 28.7 nM. Also, the Kp at 4 h in series [2] (dose 30 mg/kg) was determined as 8.02. In addition, the values for the concentration at 4 h in series [2] (setting [3]) and in series [2] (setting [4]) were 1280 ng/g and 160 ng/mL, respectively.
The matching figures for `CC(C)c1ccc(-c2cc3c(cc2F)[C@H](NC(=O)O[C@@H]2CN4CCC2CC4)C(C)(C)C3)cc1` [Example 59, (S)-quinuclidin-3-yl((R)-6-fluoro-5-(4-isopropylphenyl)-2,2-dimethyl-2,3-dihydro-1H-inden-1-yl)carbamate]: 4.3 nM, 9.7, 4120 ng/g and 436 ng/mL.
The matching figures for `Cc1cc(-c2ccc3c(c2)CC(C)(C)[C@H]3NC(=O)O[C@@H]2CN3CCC2CC3)cc(C)c1OC(C)C` [Example 10, (S)-quinuclidin-3-yl((R)-5-(4-isopropoxy-3,5-dimethylphenyl)-2,2-dimethyl-2,3-dihydro-1H-inden-1-yl)carbamate]: 10.3 nM, 5.62, 6100 ng/g and 1090 ng/mL.
The matching figures for `COc1ccc(-c2cc3c(cc2F)[C@H](NC(=O)O[C@@H]2CN4CCC2CC4)C(C)(C)C3)cc1` [Example 82, (S)-quinuclidin-3-yl((R)-6-fluoro-5-(4-methoxyphenyl)-2,2-dimethyl-2,3-dihydro-1H-inden-1-yl)carbamate]: 20.3 nM, 6.32, 5520 ng/g and 896 ng/mL.
On to `COc1ccc(-c2ccc3c(c2)CC(C)(C)[C@H]3NC(=O)O[C@@H]2CN3CCC2CC3)cc1Cl` [Example 14, (S)-quinuclidin-3-yl((R)-5-(3-chloro-4-methoxyphenyl)-2,2-dimethyl-2,3-dihydro-1H-inden-1-yl)carbamate], for which the IC50 in series [1] worked out at 48.9 nM. In addition, in series [2] (dose 30 mg/kg), the Kp at 4 h was determined as 3.92. Further, the concentration at 4 h in series [2] (setting [3]) turned out to be 3070 ng/g; in series [2] (setting [4]), 781 ng/mL.
`CC(C)Cc1ccc(-c2cc3c(cc2F)[C@H](NC(=O)O[C@@H]2CN4CCC2CC4)C(C)(C)C3)cc1` [Example 62, (S)-quinuclidin-3-yl((R)-6-fluoro-5-(4-isobutylphenyl)-2,2-dimethyl-2,3-dihydro-1H-inden-1-yl)carbamate] registered an IC50 in series [1] of 3.4 nM. In addition, the Kp at 4 h in series [2] (dose 30 mg/kg) worked out at 6.83. The concentration at 4 h in series [2] (setting [3]) was 2960 ng/g; in series [2] (setting [4]), 434 ng/mL.
The matching figures for `COc1ccc(-c2cc3c(cc2F)[C@H](NC(=O)O[C@@H]2CN4CCC2CC4)C(C)(C)C3)c(F)c1` [Example 67, (S)-quinuclidin-3-yl((R)-6-fluoro-5-(2-fluoro-4-methoxyphenyl)-2,2-dimethyl-2,3-dihydro-1H-inden-1-yl)carbamate]: 5.3 nM, 4.11, 3670 ng/g and 903 ng/mL.
As to `CC(C)Oc1ccc(-c2ccc3c(c2)CC(C)(C)[C@H]3NC(=O)O[C@@H]2CN3CCC2CC3)cc1Cl` [Example 11, (S)-quinuclidin-3-yl((R)-5-(3-chloro-4-isopropoxyphenyl)-2,2-dimethyl-2,3-dihydro-1H-inden-1-yl)carbamate], inhibition in series [1] was half-maximal at 23.4 nM (IC50). In series [2] (dose 10 mg/kg), the Kp at 4 h came to 9.12. The concentration at 4 h in series [2] (dose 10 mg/kg, read-out: Mean drug concentrations in brain tissue at 4 hr) is 2410 ng/g; in series [2] (dose 10 mg/kg, read-out: Mean drug concentrations in plasma at 4 hr) it was 265 ng/mL.
`COc1ccc(-c2ccc3c(c2)CC(C)(C)[C@H]3NC(=O)O[C@@H]2CN3CCC2CC3)c(Cl)c1` [Example 43, (S)-quinuclidin-3-yl((R)-5-(2-chloro-4-methoxyphenyl)-2,2-dimethyl-2,3-dihydro-1H-inden-1-yl)carbamate] displayed an IC50 in series [1] of 6.4 nM. In addition, the Kp at 4 h in series [2] (dose 30 mg/kg) was 3.65. Besides, the concentration at 4 h is 5720 ng/g in series [2] (setting [3]) and 1560 ng/mL in series [2] (setting [4]).
The matching figures for `CCCOc1c(C)cc(-c2ccc3c(c2)CC(C)(C)[C@H]3NC(=O)O[C@@H]2CN3CCC2CC3)cc1C` [Example 9, (S)-quinuclidin-3-yl((R)-5-(3,5-dimethyl-4-propoxyphenyl)-2,2-dimethyl-2,3-dihydro-1H-inden-1-yl)carbamate]: 22.1 nM, 6.84, 2750 ng/g and 403 ng/mL.
The matching figures for `CC(C)Oc1ccc(-c2cc3c(cc2F)[C@H](NC(=O)O[C@@H]2CN4CCC2CC4)C(C)(C)C3)cc1Cl` [Example 66, (S)-quinuclidin-3-yl((R)-5-(3-chloro-4-isopropoxyphenyl)-6-fluoro-2,2-dimethyl-2,3-dihydro-1H-inden-1-yl)carbamate]: 5.04 nM, 7.85, 5490 ng/g and 719 ng/mL.
